# Experimental data published in US9237761B2, “Methods and diets for lowering glucose and/or IGF-1 levels” (priority 2013, dated 2016).
# Assays:
# [1] = 24 mg/kg i.v., mice fed ad lib AIN93G
# [2] = test system: 4T1 breast cancer; assay: 4T1 breast cancer subcutaneous tumor progression with cisplatin; assay type: in vivo, BalB/C mice; settings: three cycles, 12, 8, 8 mg/kg i.v. days 15, 33, 44
# Protocol: Murine 4T1 breast cancer and GL26 glioma cells were maintained in DMEM (Invitrogen) supplemented with 10% fetal bovine serum (FBS) at 37° C. under 5% CO2. Cells in log phase growth were washed and suspended in PBS at 2×10^6 cells/mL and injected subcutaneously (s.c., 2×10^5 cells/mouse in 100 μL PBS) in the lower back region of the mouse. Tumor size was measured using a caliper. To mimic multi-cycle treatments in humans, mice were treated intravenously (i.v., lateral tail vein) with Cisplatin (Teva Parenteral Medicines Inc.) three times on days 15, 33 and 44 after tumor inoculation at 12, 8 and 8 mg/kg body weight, respectively. Mice were monitored daily and animals showing signs of severe stress, deteriorating health status or excess tumor load (2000 mm^3) were designated as moribund and euthanized.
# The efficacy of STS in augmenting the treatment of various cancers is twofold: it protects against chemotherapy-induced toxicity to normal cells/tissues and sensitizes malignant cells to chemotherapeutic agents. […] To test whether a short-term intermittent 50% CR (ICR) diet could result in similar beneficial effects as the established fasting protocols, murine 4T1 breast cancer cells were implanted subcutaneously into female BalB/C mice and monitored the tumor progression. […]
Compound,survival by day 25 post injection [1],tumor volume vs untreated mice [2]
"COc1cccc2c1C(=O)c1c(O)c3c(c(O)c1C2=O)C[C@@](O)(C(=O)CO)C[C@@H]3O[C@H]1C[C@H](N)[C@H](O)[C@H](C)O1 [DXR, Doxorubicin]",16%,
"N.N.[Cl][Pt][Cl] [cisplatin, Cisplatin]",,approximately half the size
